# Laboratory results taken from US20230399319A1, “Acylsulfamide Compound and Pharmaceutical Use Therefor” (Japan Tobacco Inc., priority 2019, published 2023).
# Like-named read-outs stand apart in the source and are kept apart here.
# Target: NLRP3 inflammasome (Homo sapiens (Human), UniProt Q96P20)
# Assay: Evaluation of NLRP3 inflammasome inhibitory activity (inhibition of IL-1β production in THP1-Null cells, LPS/Nigericin)
# Details: for inhibition at 3 µM: read-out: % inhibition at 3 μM; for inhibition at 30 µM: read-out: Inhibition at 30 μM
# [1] = inhibition of IL-1β production in THP1-Null cells
# [2] = IL-1β production in THP1-Null cells, PMA/LPS primed, Nigericin 7.5 μmol/L
# NLRP3 inflammasome, sequence (Q96P20 whole entry): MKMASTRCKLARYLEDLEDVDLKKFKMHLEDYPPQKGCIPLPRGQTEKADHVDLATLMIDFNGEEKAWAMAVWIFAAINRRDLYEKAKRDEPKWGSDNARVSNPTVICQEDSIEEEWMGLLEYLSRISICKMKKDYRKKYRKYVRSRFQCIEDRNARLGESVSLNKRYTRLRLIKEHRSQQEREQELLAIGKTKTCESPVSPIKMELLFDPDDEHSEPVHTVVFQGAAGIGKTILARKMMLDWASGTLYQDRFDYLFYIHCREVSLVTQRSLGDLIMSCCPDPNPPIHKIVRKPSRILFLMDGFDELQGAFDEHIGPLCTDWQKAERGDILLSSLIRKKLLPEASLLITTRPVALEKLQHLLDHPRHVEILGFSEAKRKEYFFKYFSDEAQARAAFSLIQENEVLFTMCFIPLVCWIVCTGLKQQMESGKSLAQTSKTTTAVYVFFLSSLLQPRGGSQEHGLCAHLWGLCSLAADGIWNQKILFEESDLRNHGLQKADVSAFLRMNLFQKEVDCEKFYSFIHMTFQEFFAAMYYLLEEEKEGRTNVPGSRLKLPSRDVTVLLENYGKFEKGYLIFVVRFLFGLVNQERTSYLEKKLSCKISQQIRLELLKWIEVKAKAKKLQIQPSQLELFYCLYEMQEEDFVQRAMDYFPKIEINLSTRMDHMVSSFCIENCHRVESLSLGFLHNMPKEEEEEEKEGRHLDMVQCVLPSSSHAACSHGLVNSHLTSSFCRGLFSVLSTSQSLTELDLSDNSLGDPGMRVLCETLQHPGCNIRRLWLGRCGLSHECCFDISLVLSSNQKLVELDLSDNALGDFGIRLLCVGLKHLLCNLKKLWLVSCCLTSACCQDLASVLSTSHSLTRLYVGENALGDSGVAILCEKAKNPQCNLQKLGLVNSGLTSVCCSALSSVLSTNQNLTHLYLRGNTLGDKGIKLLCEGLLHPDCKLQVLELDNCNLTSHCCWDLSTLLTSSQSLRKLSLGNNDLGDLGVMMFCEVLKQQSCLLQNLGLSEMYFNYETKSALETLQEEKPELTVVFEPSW
Compound,IC50 [1] [nM],other results
COC1COCCN(S(=O)(=O)NC(=O)c2coc(Nc3cc(C(F)(F)F)ccc3C)n2)C1 (racemic) [Example 2-076],–,IC50: 25 nM
CCc1ccc(C(F)(F)F)cc1Nc1nc(C(=O)NS(=O)(=O)N2CCCOCC2)co1 [Example 2-059],< 30,–
Cc1ccc(C(F)(F)F)nc1Nc1nc(C(=O)NS(=O)(=O)N(C)C)co1 [Example 2-087],550,–
CC(C)c1ccc(C(F)F)cc1Nc1nc(C(=O)NS(=O)(=O)N2CCCOCC2)co1 [Example 2-106],44,–
COCCN(C(C)C)S(=O)(=O)NC(=O)c1coc(Nc2c3c(c(Cl)c4c2CCC4)CCC3)n1 [Example 39],–,IC50 [2]: 220 nM
CCCC(=O)N1CCCN(S(=O)(=O)NC(=O)c2coc(Nc3cc(C(F)F)ccc3C(C)C)n2)CC1 [Example 2-223],71,–
COCC1CN(S(=O)(=O)NC(=O)c2coc(Nc3c(C(C)C)ccc4c3CCC4)n2)CCO1 (racemic) [Example 2-120],–,IC50: 160 nM
Cc1cc(F)c(C(F)(F)F)cc1Nc1nc(C(=O)NS(=O)(=O)N2CCCOCC2)co1 [Example 2-213],39,–
Cc1ccc(C(F)(F)F)cc1Nc1nc(C(=O)NS(=O)(=O)N2CCOCC(C#N)C2)co1 (racemic) [Example 2-127],–,IC50: 130 nM
Cc1ccc(C(C)C)cc1Nc1nc(C(=O)NS(=O)(=O)N(C)C)cs1 [Example 2-054],52,–
Cc1ccc(C(C)(F)F)cc1Nc1nc(C(=O)NS(=O)(=O)N(C)C)co1 [Example 2-013],64,–
O=C(NS(=O)(=O)N1C2CCC1CC2)c1coc(Nc2c3c(c(Cl)c4c2CCC4)CCC3)n1 [Example 50],–,IC50 [2]: 720 nM
Cc1ccc(Br)cc1Nc1nc(C(=O)NS(=O)(=O)N2CCCOCC2)co1 [Example 2-140],74,–
CCCS(=O)(=O)N1CCN(S(=O)(=O)NC(=O)c2coc(Nc3cc(C)ccc3C)n2)CC(OC)C1 (racemic) [Example 2-251],–,IC50: 32 nM
CC(C)c1cn(C(C)C)nc1Nc1nc(C(=O)NS(=O)(=O)N(C)C(C)C)co1 [Example 2-138],92,–
Cc1ccc(C(F)(F)F)cc1Nc1nc(C(=O)NS(=O)(=O)N2CCN(S(=O)(=O)CCCF)CC(F)C2)co1 (racemic) [Example 2-198],–,IC50: 29 nM
Cc1ccc(C(F)(F)F)cc1Nc1nc(C(=O)NS(=O)(=O)N2CCC(=O)N(C)CC2)co1 [Example 2-093],59,–
O=C(NS(=O)(=O)N1C[C@H]2COC[C@H]2C1)c1coc(Nc2c3c(c(Cl)c4c2CCC4)CCC3)n1 [Example 61],–,IC50 [2]: 170 nM
CC(C)Cc1nn(C(C)C)cc1Nc1nc(C(=O)NS(=O)(=O)N2CCCOCC2)co1 [Example 2-180],–,inhibition at 3 µM: -3%
CC(C)c1cccc(C(C)C)c1Nc1ncc(C(=O)NS(=O)(=O)N(C)C)o1 [Example 20],–,inhibition at 30 µM: 48%
CCCN1CCN(S(=O)(=O)NC(=O)c2coc(Nc3cc(C(F)(F)F)ccc3C)n2)CCC1=O [Example 2-320],–,IC50: 600 nM
Cc1ccc(C(C)(F)F)cc1Nc1nc(C(=O)NS(=O)(=O)N2CCOCC2)co1 [Example 2-015],38,–
Cc1ccc(C(C)C)cc1Nc1nc(C(=O)NS(=O)(=O)N2CCCOCC2)co1 [Example 2-047],< 30,–
Cc1ccc2c(c1Nc1nc(C(=O)NS(=O)(=O)N3CCOCC3)cs1)CCC2 [Example 2-084],140,–

Compound,IC50 [1] [nM],other results
O=C(NS(=O)(=O)N1CCC2(COC2)C1)c1coc(Nc2c3c(c(Cl)c4c2CCC4)CCC3)n1 [Example 48],–,inhibition at 30 µM: 23%
"COC1COCCN(S(=O)(=O)NC(=O)c2coc(Nc3cc(C(F)(F)F)ccc3C)n2)C1 (single isomer, unassigned) [Example 2-218]",72,–
CCCN1CCCN(S(=O)(=O)NC(=O)c2coc(Nc3cc(C(F)(F)F)ccc3C)n2)CC1 [Example 2-154],230,–
Cc1ccc(C(F)(F)F)cc1Nc1nc(C(=O)NS(=O)(=O)N2CCC(S(=O)(=O)NC(C)C)CC2)co1 [Example 2-007],< 30,–
Cc1cc(Nc2nc(C(=O)NS(=O)(=O)N3CCOC(CS(=O)(=O)C(C)C)CC3)co2)c(C)cc1F (stereo not drawn) [Example 3-004],–,IC50 [2]: 26 nM
Cc1cnc(C)c(Nc2nc(C(=O)NS(=O)(=O)N(C)C)co2)n1 [Example 2-086],–,inhibition at 3 µM: 17%
Cc1ccc(C(F)(F)F)cc1Nc1nc(C(=O)NS(=O)(=O)N2CCOCC2)co1 [Example 70],–,IC50 [2]: < 30 nM
Cc1cnc(C(F)(F)F)cc1Nc1nc(C(=O)NS(=O)(=O)N(C)C)co1 [Example 2-074],11000,–
O=C(NS(=O)(=O)N1CCCOCC1)c1cnc(Nc2c3c(cc4c2CCC4)CCC3)o1 [Example 4],–,IC50 [2]: 81 nM
CC(C)c1ccc(C(C)C)c(Nc2nc(C(=O)NS(=O)(=O)N(C)C)co2)c1 [Example 2-070],120,–
CCOC1COCCN(S(=O)(=O)NC(=O)c2coc(Nc3cc(C(F)(F)F)ccc3C)n2)C1 (racemic) [Example 2-318],–,IC50: 77 nM
Cc1ccc(C(F)(F)F)cc1Nc1nc(C(=O)NS(=O)(=O)N(C)C)cs1 [Example 2-062],48,–
CC(C)c1cn(C(C)C)nc1Nc1nc(C(=O)NS(=O)(=O)N2CCCC2)co1 [Example 2-139],270,–
CCCS(=O)(=O)C1CCCN(S(=O)(=O)NC(=O)c2coc(Nc3cc(C(F)(F)F)ccc3C)n2)CC1 (stereo not drawn) [Example 2-306],–,IC50: 9.8 nM
CC(C)C1COCCN1S(=O)(=O)NC(=O)c1cnc(Nc2c3c(cc4c2CCC4)CCC3)o1 (racemic) [Example 10],–,IC50: 210 nM
O=C(NS(=O)(=O)N1CCC(O)C1)c1coc(Nc2c3c(c(Cl)c4c2CCC4)CCC3)n1 (racemic) [Example 41],–,IC50: 77 nM
Cc1ccc(C(F)(F)F)cc1Nc1nc(C(=O)NS(=O)(=O)N2CCOCC(C)C2)co1 (racemic) [Example 2-092],–,IC50: 22 nM
Cc1ccc(C(F)(F)F)cc1Nc1nc(C(=O)NS(=O)(=O)NC2CCOCC2)co1 [Example 2-037],2700,–
CN(C)S(=O)(=O)NC(=O)c1cnc(Nc2c3c(c(Cl)c4c2CCC4)CCC3)o1 [Example 14],–,IC50 [2]: 97 nM
Cc1ccc(C(F)(F)F)cc1Nc1nc(C(=O)NS(=O)(=O)N2CCCN(S(=O)(=O)CCC(F)(F)F)CC2)co1 [Example 2-130],20,–
Cc1ccc(C(F)(F)F)cc1Nc1nc(C(=O)NS(=O)(=O)N2CCc3nncn3CC2)co1 [Example 2-217],< 3000,–
COC1COCCN(S(=O)(=O)NC(=O)c2coc(Nc3cc(C(F)F)ccc3C)n2)C1 (racemic) [Example 2-331],–,IC50: 59 nM
O=C(NS(=O)(=O)N1CCOCC12CCC2)c1cnc(Nc2c3c(cc4c2CCC4)CCC3)o1 [Example 9],–,IC50 [2]: 210 nM

# Second part, led by results:
IC50 [1] [nM],Compound,other results
30,COCC1CCN(S(=O)(=O)NC(=O)c2coc(Nc3cc(C(C)C)ccc3C)n2)CCO1 (stereo not drawn) [Example 2-295],–
26,Cc1ccc(C(C)C)cc1Nc1nc(C(=O)NS(=O)(=O)N2CCOC(COC(F)F)CC2)co1 (stereo not drawn) [Example 2-326],–
18,CCCS(=O)(=O)N1CCCN(S(=O)(=O)NC(=O)c2coc(Nc3cc(CC)ccc3CC)n2)CC1 [Example 2-258],–
82,Cc1ccc(C(C)C)c(Nc2nc(C(=O)NS(=O)(=O)N3CCCOCC3)co2)c1 [Example 2-308],–
36,CCCCS(=O)(=O)N1CCCN(S(=O)(=O)NC(=O)c2coc(Nc3cc(C(F)F)ccc3C(C)C)n2)CC1 [Example 2-225],–
67,Cc1cnn(C2CCCN(S(=O)(=O)NC(=O)c3coc(Nc4cc(C(F)(F)F)ccc4C)n3)CC2)c1 (stereo not drawn) [Example 2-298],–
39,COCC1CCN(S(=O)(=O)NC(=O)c2coc(Nc3cc(C)ccc3C(C)C)n2)CCO1 (stereo not drawn) [Example 2-309],–
